Results: ChEMBL document CHEMBL3243925, “Disteroidyl ethers. 1. Synthesis and oral long-lasting uterotrophic activity of 1,3,5(10)-estratrien-17-yl enol ethers of 3-keto steroids” (1977)
Active and inactive are the calls of the source. The calls are words filed in the database; no cut-off is given here.

How the values were obtained:
Rattus norvegicus [1] = test: Uterotrophic activity in spayed Wistar rat assessed as autopsies by measuring uterus weight at 0.1 umol, po after 1 week (reference value: 15.1 +/- 0.51 mg); format: functional
Rattus norvegicus [2] = test: Uterotrophic activity in spayed Wistar rat assessed as autopsies by measuring uterus weight at 0.1 umol, po after 2 weeks (reference value: 15.9 +/- 0.50 mg); format: functional

SMILES	Activity (Rattus norvegicus [1])	Activity (Rattus norvegicus [2])
CCC(=O)O[C@H]1CC[C@H]2[C@@H]3CC[C@@H]4CC(O[C@H]5CC[C@H]6[C@@H]7CCc8cc(OC(=O)c9ccccc9)ccc8[C@H]7CC[C@]56C)CC[C@]4(C)[C@H]3CC[C@]12C (stereo not given in full)	inactive	inactive
C[C@]12CC[C@H]3[C@@H](CC=C4C=C(O[C@H]5CC[C@H]6[C@@H]7CCc8cc(OC9CCCC9)ccc8[C@H]7CC[C@]56C)CC[C@@H]43)[C@@H]1CC[C@@H]2OC(=O)CCC(=O)O	28.9 mg	31.8 mg
C#C[C@]1(OC(C)=O)CC[C@H]2[C@@H]3CC=C4C=C(O[C@H]5CC[C@H]6[C@@H]7CCc8ccccc8[C@H]7CC[C@]56C)CC[C@@H]4[C@H]3CC[C@@]21C	inactive	inactive
C#C[C@]1(OC(C)=O)CC[C@H]2[C@@H]3CC=C4C=C(O[C@H]5CC[C@H]6[C@@H]7CCc8cc(OC(=O)c9ccccc9)ccc8[C@H]7CC[C@]56C)CC[C@@H]4[C@H]3CC[C@@]21C	25.6 mg	21.4 mg
C#C[C@]1(O)CC[C@H]2[C@@H]3CCc4cc(OC5CCCC5)ccc4[C@H]3CC[C@@]21C [QUINESTROL]	39 mg	29 mg
C#C[C@]1(OC(=O)CCCCCC)CC[C@H]2[C@@H]3CC=C4C=C(O[C@H]5CC[C@H]6[C@@H]7CCc8cc(OC(=O)C(C)C)ccc8[C@H]7CC[C@]56C)CC[C@@H]4[C@H]3CC[C@@]21C	37.2 mg	30.4 mg
C[C@]12CC[C@@H]3c4ccc(O)cc4CC[C@H]3[C@@H]1CC[C@@H]2OC1=CC2=CC[C@@H]3[C@H](CC[C@@]4(C)[C@H]3CC[C@]4(C)O)[C@@]2(C)CC1	48.1 mg	33.5 mg
C#C[C@]1(O)CC[C@H]2[C@@H]3CCc4cc(O)ccc4[C@H]3CC[C@@]21C [ETHINYL ESTRADIOL]	22.5 mg	20.5 mg
CCC(=O)O[C@H]1CC[C@H]2[C@@H]3CC=C4C=C(O[C@H]5CC[C@H]6[C@@H]7CCc8cc(OC(=O)c9ccccc9)ccc8[C@H]7CC[C@]56C)CC[C@]4(C)[C@H]3CC[C@]12C	49.4 mg	31 mg
CCC(=O)O[C@H]1CC[C@H]2[C@@H]3CC[C@@H]4C=C(O[C@H]5CC[C@H]6[C@@H]7CCc8cc(OC(=O)c9ccccc9)ccc8[C@H]7CC[C@]56C)CC[C@]4(C)[C@H]3CC[C@]12C	21.2 mg	19.9 mg
C[C@]12CC[C@@H]3c4ccc(OC(=O)c5ccccc5)cc4CC[C@H]3[C@@H]1CC[C@@H]2OC1=CC2=CC[C@@H]3[C@H](CC[C@]4(C)C(=O)CC[C@@H]34)[C@H]2CC1	59.8 mg	43.7 mg
C#C[C@]1(OC(=O)CCCCCC)CC[C@H]2[C@@H]3CC=C4C=C(O[C@H]5CC[C@H]6[C@@H]7CCc8cc(OC(=O)c9ccccc9)ccc8[C@H]7CC[C@]56C)CC[C@@H]4[C@H]3CC[C@@]21C	35.6 mg	24.2 mg
C#C[C@@]1(O)CC[C@H]2[C@@H]3CC=C4C=C(O[C@H]5CC[C@H]6[C@@H]7CCc8cc(O)ccc8[C@H]7CC[C@]56C)CC[C@@H]4[C@H]3CC[C@@]21C	inactive	inactive
CC(=O)O[C@H]1CC[C@H]2[C@@H]3CC=C4C=C(O[C@H]5CC[C@H]6[C@@H]7CCc8cc(OC(=O)c9ccccc9)ccc8[C@H]7CC[C@]56C)CC[C@@H]4[C@H]3CC[C@]12C	48 mg	31.6 mg
C#C[C@]1(OC(=O)CCCCCC)CC[C@H]2[C@@H]3CC=C4C=C(O[C@H]5CC[C@H]6[C@@H]7CCc8cc(OC)ccc8[C@H]7CC[C@]56C)CC[C@@H]4[C@H]3CC[C@@]21C	18.2 mg	15.4 mg
CC(=O)[C@H]1CC[C@H]2[C@@H]3CC=C4C=C(O[C@H]5CC[C@H]6[C@@H]7CCc8cc(OC(=O)c9ccccc9)ccc8[C@H]7CC[C@]56C)CC[C@]4(C)[C@H]3CC[C@]12C	26.3 mg	20.6 mg
C[C@]12CC[C@@H]3c4ccc(O)cc4CC[C@H]3[C@@H]1CC[C@@H]2OC1=CC2=CC[C@@H]3[C@H](CC[C@]4(C)C(=O)CC[C@@H]34)[C@H]2CC1	71.7 mg	43.6 mg
C#C[C@]1(O)CC[C@H]2[C@@H]3CC=C4C=C(O[C@H]5CC[C@H]6[C@@H]7CCc8cc(O)ccc8[C@H]7CC[C@]56C)CC[C@@H]4[C@H]3CC[C@@]21C	40.5 mg	23.3 mg

SMILES	Activity (Rattus norvegicus [1])	Activity (Rattus norvegicus [2])
C[C@]12CC[C@H]3[C@@H](CC=C4C=C(O[C@H]5CC[C@H]6[C@@H]7CCc8cc(OC(=O)c9ccccc9)ccc8[C@H]7CC[C@]56C)CC[C@@H]43)[C@@H]1CC[C@@H]2OC(=O)c1ccccc1	31.3 mg	18.1 mg
C[C@]12CC[C@@H]3c4ccc(OC5CCCC5)cc4CC[C@H]3[C@@H]1CC[C@@H]2OC1=CC2=CC[C@@H]3[C@H](CC[C@]4(C)[C@@H](O)CC[C@@H]34)[C@H]2CC1	35.8 mg	27.1 mg
C#C[C@]1(OC(=O)CCCCCC)CC[C@H]2[C@@H]3CC=C4C=C(O[C@H]5CC[C@H]6[C@@H]7CCc8cc(OC(C)=O)ccc8[C@H]7CC[C@]56C)CC[C@@H]4[C@H]3CC[C@@]21C	31.7 mg	28.7 mg
C#C[C@]1(OC(=O)CCCCCC)CC[C@H]2[C@@H]3CC=C4C=C(O[C@H]5CC[C@H]6[C@@H]7CCc8cc(O)ccc8[C@H]7CC[C@]56C)CC[C@@H]4[C@H]3CC[C@@]21C	33.8 mg	22.1 mg
CC(=O)O[C@]1(C(C)=O)CC[C@H]2[C@@H]3CC(C)=C4C=C(O[C@H]5CC[C@H]6[C@@H]7CCc8cc(OC(=O)c9ccccc9)ccc8[C@H]7CC[C@]56C)CC[C@]4(C)[C@H]3CC[C@@]21C	26.6 mg	21.9 mg
C#C[C@]1(OC(C)=O)CC[C@H]2[C@@H]3CC=C4C=C(O[C@H]5CC[C@H]6[C@@H]7CCc8cc(OC(=O)CCCCCC)ccc8[C@H]7CC[C@]56C)CC[C@@H]4[C@H]3CC[C@@]21C	29.5 mg	18.9 mg
C[C@]12CC[C@@H]3c4ccc(OC(=O)CCC(=O)O)cc4CC[C@H]3[C@@H]1CC[C@@H]2OC1=CC2=CC[C@@H]3[C@H](CC[C@]4(C)C(=O)CC[C@@H]34)[C@H]2CC1	60.7 mg	36.8 mg
CC(=O)[C@H]1CC[C@H]2[C@@H]3CC=C4C=C(O[C@H]5CC[C@H]6[C@@H]7CCc8cc(OC(=O)c9ccccc9)ccc8[C@H]7CC[C@]56C)CC[C@@H]4[C@H]3CC[C@]12C	29.1 mg	28.5 mg
CCC(=O)O[C@H]1CC[C@H]2[C@@H]3CC[C@H]4CC(O[C@H]5CC[C@H]6[C@@H]7CCc8cc(OC(=O)c9ccccc9)ccc8[C@H]7CC[C@]56C)=CC[C@]4(C)[C@H]3CC[C@]12C	23.3 mg	21.3 mg
C#C[C@]1(OC(=O)C(C)OCC)CC[C@H]2[C@@H]3CC=C4C=C(O[C@H]5CC[C@H]6[C@@H]7CCc8cc(OC(C)OCC)ccc8[C@H]7CC[C@]56C)CC[C@@H]4[C@H]3CC[C@@]21C (stereo not given in full)	23.6 mg	18 mg
C[C@]12CC[C@@H]3c4ccc(O)cc4CC[C@H]3[C@@H]1CC[C@@H]2OC1=CC2=CC[C@@H]3[C@H](CC[C@]4(C)[C@@H](O)CC[C@@H]34)[C@H]2CC1	59.9 mg	41.6 mg
C#C[C@]1(O)CC[C@H]2[C@@H]3CC=C4C=C(O[C@H]5CC[C@H]6[C@@H]7CCc8cc(OC(C)=O)ccc8[C@H]7CC[C@]56C)CC[C@@H]4[C@H]3CC[C@@]21C	39.2 mg	32.7 mg
C#C[C@]1(OC(C)=O)CC[C@H]2[C@@H]3CC=C4C=C(O[C@H]5CC[C@H]6[C@@H]7CCc8cc(OC(C)=O)ccc8[C@H]7CC[C@]56C)CC[C@@H]4[C@H]3CC[C@@]21C	36.6 mg	25.4 mg
C#C[C@]1(OC(=O)CCCCCC)CC[C@H]2[C@@H]3CC=C4C=C(O[C@H]5CC[C@H]6[C@@H]7CCc8cc(OC9CCCC9)ccc8[C@H]7CC[C@]56C)CC[C@@H]4[C@H]3CC[C@@]21C	19.8 mg	15.2 mg
C[C@]12CCC(O[C@H]3CC[C@H]4[C@@H]5CCc6cc(O)ccc6[C@H]5CC[C@]34C)C[C@@H]1CC[C@@H]1[C@@H]2CC[C@]2(C)[C@@H](O)CC[C@@H]12 (stereo not given in full)	inactive	inactive
C[C@]12CC[C@@H]3c4ccc(OC(=O)c5ccccc5)cc4CC[C@H]3[C@@H]1CC[C@@H]2OC1=CC2=CC[C@@H]3[C@H](CC[C@]4(C)C(=O)CC[C@@H]34)[C@@]2(C)CC1	53 mg	31.6 mg
C#C[C@]1(OC(C)=O)CC[C@H]2[C@@H]3CC=C4C=C(O[C@H]5CC[C@H]6[C@@H]7CC(=O)c8cc(OC(=O)c9ccccc9)ccc8[C@H]7CC[C@]56C)CC[C@@H]4[C@H]3CC[C@@]21C	inactive	inactive
